Values quoted from earlier work as cited in publication PMC11599114 (Viruses, 2024).
Like-named read-outs stand apart in the source and are kept apart here.

What was measured:
[1] = test system: INFVA; parameters: method as in AVPdb; details: ref AVPdb; for IC50: virus entry; for EC50: fusion
[2] = test system: RSV
[3] = test system: Measles virus(MeV); details: VERO/hSLAM
[4] = test system: influenza virus(H1N1,VR-1894); details: H1N1 VR-1894, MDKC
[5] = test system: SARS-CoV-2; details: SARS-CoV-2, Vero
[6] = test system: HSV-1; details: HSV-1, Vero
[7] = test system: human parainfluenza virus 3 (HPIV3); parameters: method as in ref 16973588; details: HPIV3 infection, HeLa
[8] = test system: human parainfluenza virus 3 (HPIV3); parameters: method as in ref 16973588; details: HPIV3 fusion, HeLa
[9] = test system: SARS-CoV
[10] = test system: influenza A virus(H1N1); parameters: method as in 2 sources; details: A(H1N1), MDCK
[11] = test system: HSV-2; details: HSV-2, Vero
[12] = test system: HCoV-229E; details: Vero
[13] = test system: HCoV-OC43; details: HCoV-OC43, Vero
[14] = test system: SARS-CoV-2; parameters: method as in ref 34328726; details: for IC50: SARS-CoV-2 entry, HEK293T/ACE2

## AETVESCLAKPHTEN [AVP0967]
[1]
  IC50: 66 µM

## AGDDQGLDKCVPNSKEK [AVP1195]
[1]
  EC50: 3.7 ± 0.35 pM

## AKIXQSLXFIXKSDXLLHNV [DRAVPe00631]
[2]; ref DRAVP
  IC50/EC50: 1.16 ± 0.08 µM

## AVASVPRARGKYWWG [AVP0965]
[1]
  IC50: 44 µM

## AVSKVLHLEGEVNKISALLSTNKAVVSLSNGVSVLTSKVLDLDNYIDKQLLPIVNK [AVP1971]
[2]; fusion, ref AVPdb
  IC50/EC50: 1.68 µM

## CFVPWFSKFlXRIL [DRAVPe00391]
[3]
  IC90: 31.1 µM
[4]
  IC90: 5.89 µM
[5]
  IC90: 1.89 µM
[6]
  IC90: 2.19 µM

## CGGFVPWFSKFlXRIL [DRAVPe00392]
[3]
  IC90: 49.9 µM
[4]
  IC90: 9.9 µM
[5]
  IC90: 10.2 µM
[6]
  IC90: 8.21 µM

## DASISQVNEKINQSLAFIRKSDELLHNVNAGKSTT [AVP0142]
[2]; fusion, ref AVPdb
  IC50/EC50: 8 µM

## DEFDASISQVNEKINQSLAFIRKSDELLHNVNAGK [AVP0139]
[2]; fusion, ref AVPdb
  IC50/EC50: 12 µM

## DFRRLPGAFWQLRQP [AVP0966]
[1]
  IC50: 52 µM

## DITLNNSVALDPIDISIELNKAKSDLEESKEWIRRSNQKLDSIGN [DRAVPe01310]
[7]
  IC50: 0.5 µM
[8]
  IC50: 0.5 µM

## DPLVFPSDEFDASISQVNEKINQSLAFIRKSDELL [AVP0132]
[2]; fusion, ref AVPdb
  IC50/EC50: 8 µM

## EAIXQSLXFIXKSDXLLHNV [DRAVPe00632]
[2]; ref DRAVP
  IC50/EC50: 0.60 ± 0.02 µM

## EEQAKTFLDK [DRAVPe01627]
[9]; 100 µM
  inhibition: 25%

## EEQAKTFLDKFNHEAEDLFYQSSGLGKGDFR [DRAVPe01632]
[9]
  IC50: 0.1 µM

## EFDASISQVNEKINQSLAFIRKSDELLHNVNAGKS [AVP0140]
[2]; fusion, ref AVPdb
  IC50/EC50: 13 µM

## EKAXQSLXFIXKSDXLLHNV [DRAVPe00633]
[2]; ref DRAVP
  IC50/EC50: 1.30 ± 0.89 µM

## EKIAQSLXFIRXSDXLLHXV [DRAVPe00629]
[2]; ref DRAVP
  IC50/EC50: 20.41 ± 2.4 µM

## EKINQSLAFIRKSDELLHNV [DRAVPe00623]
[2]; ref DRAVP
  IC50/EC50: >50 µM

## EKINQSLXFIAXSDXLLHXV [DRAVPe00630]
[2]; ref DRAVP
  IC50/EC50: 175 ± 0.00 µM

## EKIXASLXFIXKSDXLLHNV [DRAVPe00634]
[2]; ref DRAVP
  IC50/EC50: 0.28 ± 0.43 µM

## EKIXQALXFIXKSDXLLHNV [DRAVPe00635]
[2]; ref DRAVP
  IC50/EC50: 0.66 ± 0.26 µM

## EKIXQSAXFIXKSDXLLHNV [DRAVPe00636]
[2]; ref DRAVP
  IC50/EC50: 0.95 ± 0.53 µM

## EKIXQSLXAIXKSDXLLHNV [DRAVPe00637]
[2]; ref DRAVP
  IC50/EC50: 1.39 ± 0.10 µM

## EKIXQSLXFAXKSDXLLHNV [DRAVPe00638]
[2]; ref DRAVP
  IC50/EC50: 10.44 ± 2.97 µM

## EKIXQSLXFIXASDXLLHNV [DRAVPe00639]
[2]; ref DRAVP
  IC50/EC50: 10.93 ± 13.90 µM

## EKIXQSLXFIXKADXLLHNV [DRAVPe00640]
[2]; ref DRAVP
  IC50/EC50: 82.04 ± 1.56 µM

## EKIXQSLXFIXKSAXLLHNV [DRAVPe00641]
[2]; ref DRAVP
  IC50/EC50: 1.10 ± 0.08 µM

## EKIXQSLXFIXKSDXALHNV [DRAVPe00642]
[2]; ref DRAVP
  IC50/EC50: 0.88 ± 0.06 µM

## EKIXQSLXFIXKSDXLLANV [DRAVPe00643]
[2]; ref DRAVP
  IC50/EC50: 0.52 ± 0.07 µM

## EKIXQSLXFIXKSDXLLHAV [DRAVPe00644]
[2]; ref DRAVP
  IC50/EC50: 2.71 ± 2.93 µM

## EKIXQSLXFIXKSDXLLHNA [DRAVPe00645]
[2]; ref DRAVP
  IC50/EC50: 0.60 ± 0.03 µM

## EXINXSLXFIRXSDALLHNV [DRAVPe00646]
[2]; ref DRAVP
  IC50/EC50: 1.00 ± 0.03 µM

## EXINXSLXFIRXSDELLHNV [DRAVPe00626]
[2]; ref DRAVP
  IC50/EC50: 0.59 ± 0.13 µM

## FDASISQVNEKINQSLAFIRKSDELLHNVNAGKST [AVP0143]
[2]; fusion, ref AVPdb
  IC50/EC50: 0.051 µM

## FFVIFYRRKK [AVP1808]
[1]
  IC50: 1.48 µM

## FINGRWDSQCHRFSNGAIACA [DRAVPe01800]
[10]
  IC50: 6.6 µg/mL

## FPSDEFDASISQVNEKINQSLAFIRKSDELLHNVN [AVP0136]
[2]; fusion, ref AVPdb
  IC50/EC50: 8 µM

## FVPWFSKFlGRIL [DRAVPe00377]
[5]
  IC90: 12.1 µM
[6]
  IC90: 18.7 µM
[11]
  IC90: 16.7 µM
[12]
  IC90: 30.1 µM
[13]
  IC90: 15 µM

## FVPWFSKFlPRIL [DRAVPe00378]
[5]
  IC90: 14 µM
[6]
  IC90: 18.8 µM
[11]
  IC90: 19.2 µM
[13]
  IC90: 24.1 µM

## FVPWFSKFlWRIL [DRAVPe00385]
[5]
  IC90: 27.7 µM
[6]
  IC90: 8.25 µM
[11]
  IC90: 12.5 µM
[12]
  IC90: 50 µM
[13]
  IC90: 24.2 µM

## FVPWFSKFlXRIL [DRAVPe00380]
[5]
  IC90: 25 µM
[6]
  IC90: 15.9 µM
[11]
  IC90: 19 µM
[12]
  IC90: > 50 µM
[13]
  IC90: 27.7 µM

## FVPWFSKFlXRILC [DRAVPe00389]
[3]
  IC90: > 50 µM
[4]
  IC90: 10 µM
[5]
  IC90: 12 µM
[6]
  IC90: 11.1 µM

## FVPWFSKFlXRILGGC [DRAVPe00390]
[3]
  IC90: > 50 µM
[4]
  IC90: 49.9 µM
[5]
  IC90: 50 µM
[6]
  IC90: 48 µM

## FVPWFSKFlwRIL [DRAVPe00386]
[5]
  IC90: 14.8 µM
[6]
  IC90: 7.89 µM
[11]
  IC90: 9.76 µM
[12]
  IC90: 50 µM
[13]
  IC90: 17.4 µM

## FVPWFSKFlxRIL [DRAVPe00382]
[5]
  IC90: 17.4 µM
[6]
  IC90: 12.8 µM
[11]
  IC90: 11.9 µM
[12]
  IC90: > 50 µM
[13]
  IC90: 24.7 µM

## FYDPLVFPSDEFDASISQVNEKINQSLAFIRKSDE [AVP0130]
[2]; fusion, ref AVPdb
  IC50/EC50: 20 µM

## GAWYKGRARPVSAVA [AVP0963]
[1]
  IC50: 53 µM

## GWWYKGRARAVSAVA [AVP0964]
[1]
  IC50: 89 µM

## GWWYKGRARPVSAVA [AVP0961]
[1]
  IC50: 3.2 µM

## IDISIELNKAKSDLEESKEWIRRSNQKLDSIGNWH [DRAVPe00930]
[7]
  IC50: 0.5 µM
[8]
  IC50: 1.5 µM

## IINFYDPLVFPSDEFDASISQVNEKINQSLAFIRK [AVP0127]
[2]; fusion, ref AVPdb
  IC50/EC50: 91 µM

## INFYDPLVFPSDEFDASISQVNEKINQSLAFIRKS [AVP0128]
[2]; fusion, ref AVPdb
  IC50/EC50: 93 µM

## IPLRGAFINGRWDSQCHRFS [DRAVPe01801]
[10]
  IC50: 12.9 µg/mL

## IYALLENAEDYNLVN [DRAVPe01985]
[14]
  IC50: 0.009 ± 0.004 µM
[14]; at 25 µM
  inhibition: 100%

## LVFPSDEFDASISQVNEKINQSLAFIRKSDELLHN [AVP0134]
[2]; fusion, ref AVPdb
  IC50/EC50: 9 µM

## NFYDPLVFPSDEFDASISQVNEKINQSLAFIRKSD [AVP0129]
[2]; fusion, ref AVPdb
  IC50/EC50: >100 µM

## NFYDPLVFPSDEFDASISQVNEKINQSLASIRKSDELLHNVNAGK [AVP1972]
[2]; fusion, ref AVPdb
  IC50/EC50: 2.93 µM

## NGESSADWAKN [AVP1196]
[1]
  EC50: 225 ± 1.16 pM

## PLVFPSDEFDASISQVNEKINQSLAFIRKSDELLH [AVP0133]
[2]; fusion, ref AVPdb
  IC50/EC50: 30 µM

## PSDEFDASISQVNEKINQSLAFIRKSDELLHNVNA [AVP0137]
[2]; fusion, ref AVPdb
  IC50/EC50: 6 µM

## QDKHEEDYQMYNKGDKED [DRAVPe01982]
[14]
  IC50: 0.018 ± 0.002 µM
[14]; at 0.39 µM
  inhibition: 95%
[14]; at 25 µM
  inhibition: 100%

## RAVWRHSVATPSHSV [AVP0969]
[1]
  IC50: > 500 µM

## RRKKAAVALLPAVLLALLAP [AVP0554]
[1]
  IC50: 8 µM

## RRKKIFYFFR [AVP1759]
[1]
  IC50: 0.155 µM

## RRKKWLVFFVIFYFFR [AVP1754]
[1]
  IC50: 4e-05 µM

## SDEFDASISQVNEKINQSLAFIRKSDELLHNVNAG [AVP0138]
[2]; fusion, ref AVPdb
  IC50/EC50: 6 µM

## SKHSSLDCVLRP [AVP1194]
[1]
  EC50: 4 ± 0.37 pM

## SRDKHEEHEKENDRGQ [DRAVPe01986]
[14]
  IC50: 0.01 ± 0.005 µM
[14]; at 25 µM
  inhibition: 100%

## VALDPIDISIELNKAKSDLEESKEWIRRSNQKLDSD [DRAVPe01313]
[7]
  IC50: 0.5 µM
[8]
  IC50: 0.35 µM

## VALDPIDISIELNKAKSDLEESKEWIRRSNQKLDSI [DRAVPe01311]
[7]
  IC50: 0.5 µM
[8]
  IC50: 0.5 µM

## VANDPIDISIELNKAKSDLEESKEWIRRSNQKLDSI [DRAVPe01312]
[7]
  IC50: 1.1 µM
[8]
  IC50: 0.75 µM

## VFPSDEFDASISQVNEKINQSLAFIRKSDELLHNV [AVP0135]
[2]; fusion, ref AVPdb
  IC50/EC50: 19 µM

## WLVFFVIAYFAR [AVP1755]
[1]
  IC50: 0.00087 µM

## WLVFFVIFYFFR [AVP1756]
[1]
  IC50: 0.0936 µM

## WLVFFVIFYFFRRRKK [AVP1753]
[1]
  IC50: 3e-05 µM

## WLVFFVRRKK [AVP1806]
[1]
  IC50: 0.638 µM

## YDPLVFPSDEFDASISQVNEKINQSLAFIRKSDEL [AVP0131]
[2]; fusion, ref AVPdb
  IC50/EC50: 6 µM
